Results from patent US7691848B2, “Pyrrolobenzodiazepine arylcarboxamides and derivatives thereof as follicle-stimulating hormone receptor antagonists” (Wyeth, priority 2005, dated 2010).
pIC50: −log10 of the molar value.

What was measured:
human FSH receptor = target: T1, human FSH receptor (Homo sapiens, UniProt P23945); experiment: Follicle-Stimulating Hormone Receptor-Dependent Cre-Luciferase Reporter Gene Assay (CHO FSH-R 6CRE-Luc cells); assay type: cell-based; conditions: for inhibition at 30 µM: 2-dose format, concentration in parentheses 30 μM, inhibition of the response to EC50 of FSH; for pIC50: dose-response format, in presence of EC50 of purified human FSH
T1 construct: host or cells: CHO-K1 (CHO FSH-R 6CRE-Luc, 1D7 cells)
T1 sequence (P23945 18-695): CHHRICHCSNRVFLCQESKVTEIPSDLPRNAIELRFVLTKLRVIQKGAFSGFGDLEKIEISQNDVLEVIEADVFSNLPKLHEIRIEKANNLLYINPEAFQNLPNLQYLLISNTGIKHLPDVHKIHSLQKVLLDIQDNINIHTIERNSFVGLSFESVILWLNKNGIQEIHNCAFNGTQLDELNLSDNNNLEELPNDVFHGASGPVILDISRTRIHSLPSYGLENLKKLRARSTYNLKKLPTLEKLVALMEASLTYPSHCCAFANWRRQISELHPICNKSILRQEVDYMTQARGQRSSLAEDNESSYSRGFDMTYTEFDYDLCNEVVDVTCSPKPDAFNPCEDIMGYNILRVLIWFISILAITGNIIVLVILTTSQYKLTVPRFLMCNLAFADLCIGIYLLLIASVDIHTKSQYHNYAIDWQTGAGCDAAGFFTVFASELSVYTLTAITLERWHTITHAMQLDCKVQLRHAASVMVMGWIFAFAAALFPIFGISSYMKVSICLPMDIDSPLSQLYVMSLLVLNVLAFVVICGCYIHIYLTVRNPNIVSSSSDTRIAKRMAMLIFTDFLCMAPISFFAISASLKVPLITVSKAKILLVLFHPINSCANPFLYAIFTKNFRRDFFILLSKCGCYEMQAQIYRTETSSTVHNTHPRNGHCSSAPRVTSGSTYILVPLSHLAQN
From the text: Follicle-Stimulating Hormone Receptor-Dependent Cre-Luciferase Reporter Gene Assay for the Identification of Follicle-Stimulating Hormone (FSH) Antagonists
A Chinese hamster ovarian cell line that stably produces the human FSH receptor and a luciferase reporter gene regulated by cAMP response elements was used to identify and determine the relative potencies of human FSH receptor antagonists. See for example, Kelton, C. A., et al. Mol. Cell. Endocrinol. 89:141-151 (1992), Tilly, J. L., et al. Endocrinology 131:799-806(1992), and George, S. E., et al. J. Biomol. Screening 2:235-240 (1997).
Compound Vehicle: Stock compounds were solubilized in an appropriate vehicle, e.g., phosphate buffered saline (PBS) or dimethyl sulfoxide (DMSO), at 30 mM. The compounds were subsequently diluted in DMSO to working dilutions of 1 and 20 or 30 mM for 2-dose testing format and 1 μM-10 mM for dose-response format. The DMSO dilutions were diluted 500-fold in sterile growth medium [D-MEM/F-12 (GIBCO/BRL; Grand Island, NY) containing 15 mM HEPES, 2 mM 1-glutamine, pyridoxine hydrochloride, phenol red and 5% FetalClone® II (HyClone Laboratories, Inc; Logan, Utah), 0.2% DMSO, 100 units penicillin G/ml, and 100 μg streptomycin sulfate/ml (GIBCO/BRL)]. The concentration of the vehicle in each of the compound dilutions was the same.
Positive Controls: Purified human FSH (>98%) was purchased from Cortex Biochem, Inc. (San Leandro, Calif.) and 3-[(2S*,5R*)-5-{[2-(1H-Indol-3-yl)-ethylcarbamoyl]-methyl}-4-oxo-2-(5-phenylethynyl-thiophen-2-yl)-thiazolidin-3-yl]-benzamide (an FSH-R thiazolidinone antagonist) was prepared by processes described by R. A. Scheuerman et al. in U.S. Pat. No. 6,426,357 (Affymax).
The CHO FSH-R 6CRE-Luc cells (1D7 cells) were obtained from Affymax (Palo Alto, Calif.). These Chinese hamster ovary cells (CHO-K1) were engineered genetically to stably express the recombinant human FSH receptor gene and a luciferase reporter gene under the regulation of 6 copies of a cAMP response element. The cells were plated one day prior to treatment into 96-well white opaque plates at a density of 50,000 cells/100 μl/well in growth medium. On the day of treatment, the growth medium was removed from the wells by aspiration and 50 μl of fresh growth medium was added to each well. The cells were incubated at 37° C. in a humidified incubator with 5% CO2/95% air.
The treated cells were incubated for 4 hours at 37° C. in a humidified incubator with 5% CO2/95% air. At the end of the incubation period, luciferase activity was measured by chemiluminescence using a commercially available kit (LucScreen, Tropix, Inc., Bedford, Mass.) according to the manufacturer's specifications, except that Buffer 1 and Buffer 2 were mixed together in equal proportion prior to the addition of 100 μl of the combined reagents to each well. Chemiluminescence was detected using a luminometer (EG & G Berthold Microlumat LB 96 P, Wallac, Gaithersburg, Md.) with chemiluminescence measured for 1 sec/well. Background luminescence was measured for each well prior to the addition of the LucScreen reagent.
In the 96-well 2-dose format, each compound was tested in duplicate at each dose. […] One plate was used to test a maximum of 22 compounds.
The EC50 of purified human FSH alone was tested in triplicate with each test compound. The doses chosen to test each compound were extrapolated from the initial 2-dose screening process. Along with the test compounds, purified human FSH also was tested in a dose response (0.03, 0.1, 0.3, 1, 3, 10, and 30 ng/ml) for a positive control and quality control. One plate was used for 3 test compounds and the FSH positive control.
Luciferase activity is expressed as relative light units/sec/well. Luciferase activity in antagonist was compared to the appropriate negative and positive controls. For 2-dose testing, results are reported as luciferase activity and are expressed as percent inhibition of the response obtained from the EC50 of FSH.

| inhibition at 30 µM (human FSH receptor) | melting point | pIC50 (human FSH receptor) | Structure (SMILES) |
| --- | --- | --- | --- |
| 7% | 130 to 131 °C | – | Cc1cccc(CNC(=O)c2ccc3n2Cc2ccccc2N(C(=O)COc2ccc(Cl)cc2)C3)c1 [Example 71, 10-[(4-CHLOROPHENOXY)ACETYL]-N-(3-METHYLBENZYL)-10,11-DIHYDRO-5H-PYRROLO[2,1-C][1,4]BENZODIAZEPINE-3-CARBOXAMIDE] |
| – | 143 to 145 °C | < 4.52 | O=C(NCc1cccc(C(F)(F)F)c1)c1ccc2n1Cc1ccccc1N(C(=O)COc1ccc(Cl)cc1)C2 [Example 72, 10-[(4-CHLOROPHENOXY)ACETYL]-N-[3-(TRIFLUOROMETHYL)BENZYL]-10,11-DIHYDRO-5H-PYRROLO[2,1-C][1,4]BENZODIAZEPINE-3-CARBOXAMIDE] |
| – | 157 to 158 °C | 4.60 | O=C(NCC(O)c1ccccc1)c1ccc2n1Cc1ccccc1N(C(=O)COc1ccc(Cl)cc1)C2 (stereo not drawn) [Example 73] |
| 6% | 201 to 202 °C | – | O=C(Nc1ccc(-c2ccccc2)cc1)c1ccc2n1Cc1ccccc1N(C(=O)COc1ccc(Cl)cc1)C2 [Example 74, N-(1,1′-BIPHENYL-4-YL)-10-[(4-CHLOROPHENOXY)ACETYL]-10,11-DIHYDRO-5H-PYRROLO[2,1-C][1,4]BENZODIAZEPINE-3-CARBOXAMIDE] |
| 3.5% | 165 to 167 °C | – | COC(=O)c1ccc(CNC(=O)c2ccc3n2Cc2ccccc2N(C(=O)COc2ccc(Cl)cc2C)C3)cc1 [Example 77, METHYL 4-{[({10-[(4-CHLORO-2-METHYLPHENOXY)ACETYL]-10,11-DIHYDRO-5H-PYRROLO[2, 1-C][1,4]BENZODIAZEPIN-3-YL}CARBONYL)AMINO]METHYL}BENZOATE] |
| 33% | 167 to 168 °C | – | COc1cc(CNC(=O)c2ccc3n2Cc2ccccc2N(C(=O)COc2ccc(Cl)cc2C)C3)ccc1O [Example 78, 10-[(4-CHLORO-2-METHYLPHENOXY)ACETYL]-N-(4-HYDROXY-3-METHOXYBENZYL)-10,11-DIHYDRO-5H-PYRROLO[2,1-C][1,4]BENZODIAZEPINE-3-CARBOXAMIDE] |
| 13% | 159 to 161 °C | – | Cc1cc(-c2ccccc2C)ccc1NC(=O)c1ccc2n1Cc1ccccc1N(C(=O)COc1ccc(Cl)cc1)C2 [Example 79] |
| – | 150 °C | < 4.52 | O=C(NCc1ccc(Cl)c(Cl)c1)c1ccc2n1Cc1ccccc1N(C(=O)CSc1ccc(Br)cc1)C2 [Example 81, 10-{[(4-BROMOPHENYL)THIO]ACETYL}-N-(3,4-DICHLOROBENZYL)-10,11-DIHYDRO-5H-PYRROLO[2,1-C][1,4]BENZODIAZEPINE-3-CARBOXAMIDE] |
| 37% | 168 °C | – | COc1cc(CNC(=O)c2ccc3n2Cc2ccccc2N(C(=O)CSc2ccc(Br)cc2)C3)ccc1O [Example 82, 10-{[(4-BROMOPHENYL)THIO]ACETYL}-N-(4-HYDROXY-3-METHOXYBENZYL)-10,11-DIHYDRO-5H-PYRROLO[2,1-C][1,4]BENZODIAZEPINE-3-CARBOXAMIDE] |
| 24% | 131 to 132 °C | – | Cc1ccc(CNC(=O)c2ccc3n2Cc2ccccc2N(C(=O)CSc2ccc(Br)cc2)C3)cc1 [Example 83, 10-{[(4-BROMOPHENYL)THIO]ACETYL}-N-(4-METHYLBENZYL)-10,11-DIHYDRO-5H-PYRROLO[2,1-C][1,4]BENZODIAZEPINE-3-CARBOXAMIDE] |
| 27% | 154 to 155 °C | – | O=C(NCc1ccc2c(c1)OCO2)c1ccc2n1Cc1ccccc1N(C(=O)CSc1ccc(Br)cc1)C2 [Example 84] |
| 24% | 102 °C | – | O=C(NCc1cccc(C(F)(F)F)c1)c1ccc2n1Cc1ccccc1N(C(=O)CSc1ccc(Br)cc1)C2 [Example 85, 10-{[(4-BROMOPHENYL)THIO]ACETYL}-N-[3-(TRIFLUOROMETHYL)BENZYL]-10,11-DIHYDRO-5H-PYRROLO[2,1-C][1,4]BENZODIAZEPINE-3-CARBOXAMIDE] |
| 35% | 168 to 169 °C | – | O=C(NCCc1ccc(O)cc1)c1ccc2n1Cc1ccccc1N(C(=O)CSc1ccc(Br)cc1)C2 [Example 86, 10-{[(4-BROMOPHENYL)THIO]ACETYL}-N-[2-(4-HYDROXYPHENYL)ETHYL]-10,11-DIHYDRO-5H-PYRROLO[2,1-C][1,4]BENZODIAZEPINE-3-CARBOXAMIDE] |
| 3% | 163 to 165 °C | – | O=C(NC1CCCc2ccccc21)c1ccc2n1Cc1ccccc1N(C(=O)CSc1ccc(Br)cc1)C2 (stereo not drawn) [Example 87, 10-{[(4-BROMOPHENYL)THIO]ACETYL}-N-(1,2,3,4-TETRAHYDRONAPHTHALEN-1-YL)-10,11-DIHYDRO-5H-PYRROLO[2,1-C][1,4]BENZODIAZEPINE-3-CARBOXAMIDE] |
| – | 148 to 150 °C | < 4.52 | Cc1ccccc1-c1ccc(C(=O)N2Cc3ccc(C(=O)NCc4ccc(C(=O)c5ccccc5)cc4)n3Cc3ccccc32)cc1C [Example 88] |
| – | 175 °C | < 4.52 | COc1cc(CNC(=O)c2ccc3n2Cc2ccccc2N(C(=O)c2ccc(-c4ccccc4C)c(OC)c2)C3)cc(OC)c1 [Example 89, N-(3,5-DIMETHOXYBENZYL)-10-[(2-METHOXY-2′-METHYL-1,1′-BIPHENYL-4-YL)CARBONYL]-10,11-DIHYDRO-5H-PYRROLO[2,1-C][1,4]BENZODIAZEPINE-3-CARBOXAMIDE] |
| – | 126 to 128 °C | < 4.52 | Cc1ccccc1-c1ccc(C(=O)N2Cc3ccc(C(=O)NCC(c4ccccc4)c4ccccc4)n3Cc3ccccc32)cc1C [Example 90] |
| – | 154 to 155 °C | < 4.52 | Cc1ccccc1-c1ccc(C(=O)N2Cc3ccc(C(=O)NCc4ccc(N(C)C)cc4)n3Cc3ccccc32)cc1C [Example 91] |
| – | 122 to 124 °C | < 4.52 | Cc1ccccc1-c1ccc(C(=O)N2Cc3ccc(C(=O)NC4CCc5ccccc54)n3Cc3ccccc32)cc1C (stereo not drawn) [Example 92] |
| – | 219 to 220 °C | < 4.52 | Cc1ccccc1-c1ccc(C(=O)N2Cc3ccc(C(=O)NC4Cc5ccccc5C4)n3Cc3ccccc32)cc1C [Example 93] |
| – | 199 to 200 °C | < 4.52 | O=C(NC1CCCc2ccccc21)c1ccc2n1Cc1ccccc1N(C(=O)COc1ccc(Cl)cc1)C2 (stereo not drawn) [Example 94, 10-[(4-CHLOROPHENOXY)ACETYL]-N-(1,2,3,4-TETRAHYDRONAPHTHALEN-1-YL)-10,11-DIHYDRO-5H-PYRROLO[2,1-C][1,4]BENZODIAZEPINE-3-CARBOXAMIDE] |
